Measurements from US6936270B2, “Device and method for treating conditions of a joint” (Control Delivery Systems, Inc., priority 2000, dated 2005).
Read-outs that look alike come from different tables or passages of the source.

Test: Fluocinolone acetonide concentration in dog synovial fluid after intraarticular implants in knee joints
Format: in vivo, Canis familiaris
Conditions: for concentration at 3 day / concentration at 7 day / concentration at 21 day / concentration at 29 day / concentration at 56 day: dog, other: bilateral intraarticular implants (knee joints)
Protocol: Devices were administered once via bilateral intraarticular implants. The day of surgical implantation was Day 1. The devices were made as follows. Fluocinolone acetonide, USP, was compressed into 1.5 mm diameter tablets using standard pharmaceutical methods. The tablets were placed into preformed cups made from silicone elastomer. Cup size was dependent on dosage form. These cups were attached to […] (PVA) suture tabs. For the 2 mg implants, the surface of the tablet not coated with silicone was attached to a suture tab with PVA solution. For the […] implant, a side of the silicone cup was attached perpendicular to the suture tab. Finally, the assemblies were dip coated with PVA. The implants were then cured at 135° C. for 5 hours and placed within the primary package. The product in the primary package was placed in a self-adhesive pouch and sterilized using gamma irradiation. Surgery was performed on both knee joints of all animals. A lateral skin incision was made to expose the fascia lata overlying the vastus lateralis cranially and the biceps fernoris caudally. The joint was exposed through an incision in the lateral intermuscular septum to expose the femur by anterior retraction of the vastus lateralis and posterior retraction of the biceps femoris. Care was taken not to disrupt the tendon of origin of the long digital extensor as it originates from the lateral femoral condyle. The joint capsule was opened, the patella luxated medially, and the joint was held in full flexion. 2 mg devices were placed in the right leg and 18 mg implants were placed in the left leg. The implants were placed within the anterior intercondyloid fossa, immediately lateral to the origin of the posterior cruciate ligament. The bone may be slightly deepened at this location with a curette to accept the implant. The implant was sutured in place to the posterior cruciate ligament. The joint capsule was closed with 3/0 PDS in a simple interrupted fashion. The retinaculum and intermuscular septum were closed with 2/0 Vicryl in a continuous pattern. The fascia lata were closed with 2/0 PDS, and the subcutaneous tissues with 3/0 PDS, both in a simple continuous pattern. The skin was closed with 3/0 Vicryl in a subcuticular pattern. After anesthesia (acepromazine, 0.2 mg/kg. IM followed by sodium pentobarbital, 22 mg/kg, IV, to effect), an attempt was made to obtain synovial fluid. Syriovial fluid samples were immediately stored at ≦−70° C. in polypropylene tubes until transferred.

SMILES: CC1(C)O[C@@H]2C[C@H]3[C@@H]4C[C@H](F)C5=CC(=O)C=C[C@]5(C)[C@@]4(F)[C@@H](O)C[C@]3(C)[C@]2(C(=O)CO)O1 [Fluocinolone Acetonide]
- Assayed Concentrations of Fluocinolone Acetonide in Dog Synovial Fluid Samples (Right Leg) (Right leg (2 mg devices), Dog 1001, Day 21): 7.27 ng/mL
- Assayed Concentrations of Fluocinolone Acetonide in Dog Synovial Fluid Samples (Right Leg) (Right leg (2 mg devices), Dog 2001, Day 7): 98.4 ng/mL
- Assayed Concentrations of Fluocinolone Acetonide in Dog Synovial Fluid Samples (Right Leg) (Right leg (2 mg devices), Dog 2002, Day 7): 47.7 ng/mL
- Assayed Concentrations of Fluocinolone Acetonide in Dog Synovial Fluid Samples (Right Leg) (Right leg (2 mg devices), Dog 2002, Day 21): 144 ng/mL
- Assayed Concentrations of Fluocinolone Acetonide in Dog Synovial Fluid Samples (Right Leg) (Right leg (2 mg devices), Dog 3001, Day 7): 171 ng/mL
- Assayed Concentrations of Fluocinolone Acetonide in Dog Synovial Fluid Samples (Right Leg) (Right leg (2 mg devices), Dog 3001, Day 21): 51.5 ng/mL
- Assayed Concentrations of Fluocinolone Acetonide in Dog Synovial Fluid Samples (Right Leg) (Right leg (2 mg devices), Dog 3002, Day 7): 8.30 ng/mL
- concentration at 3 day (synovial fluid (left knee joint), 18 mg, Left leg (18 mg implants), Dog 1001, Day 3, read-out: Assayed Concentrations of Fluocinolone Acetonide in Dog Synovial Fluid Samples (Left Leg)): 656 ng/mL
- concentration at 7 day (synovial fluid (left knee joint), 18 mg, Left leg (18 mg implants), Dog 1001, Day 7, read-out: Assayed Concentrations of Fluocinolone Acetonide in Dog Synovial Fluid Samples (Left Leg)): 290 ng/mL
- concentration at 21 day (synovial fluid (left knee joint), 18 mg, Left leg (18 mg implants), Dog 1001, Day 21, read-out: Assayed Concentrations of Fluocinolone Acetonide in Dog Synovial Fluid Samples (Left Leg)): 1070 ng/mL
- concentration at 29 day (synovial fluid (left knee joint), 18 mg, Left leg (18 mg implants), Dog 1001, Day 29, read-out: Assayed Concentrations of Fluocinolone Acetonide in Dog Synovial Fluid Samples (Left Leg)): 457 ng/mL
- concentration at 56 day (synovial fluid (left knee joint), 18 mg, Left leg (18 mg implants), Dog 1001, Day 56, read-out: Assayed Concentrations of Fluocinolone Acetonide in Dog Synovial Fluid Samples (Left Leg)): 202000 ng/mL
- concentration at 3 day (synovial fluid (left knee joint), 18 mg, Left leg (18 mg implants), Dog 1002, Day 3, read-out: Assayed Concentrations of Fluocinolone Acetonide in Dog Synovial Fluid Samples (Left Leg)): 357 ng/mL
- concentration at 7 day (synovial fluid (left knee joint), 18 mg, Left leg (18 mg implants), Dog 1002, Day 7, read-out: Assayed Concentrations of Fluocinolone Acetonide in Dog Synovial Fluid Samples (Left Leg)): 405 ng/mL
- concentration at 21 day (synovial fluid (left knee joint), 18 mg, Left leg (18 mg implants), Dog 1002, Day 21, read-out: Assayed Concentrations of Fluocinolone Acetonide in Dog Synovial Fluid Samples (Left Leg)): 373 ng/mL
- concentration at 29 day (synovial fluid (left knee joint), 18 mg, Left leg (18 mg implants), Dog 1002, Day 29, read-out: Assayed Concentrations of Fluocinolone Acetonide in Dog Synovial Fluid Samples (Left Leg)): 379 ng/mL
- concentration at 56 day (synovial fluid (left knee joint), 18 mg, Left leg (18 mg implants), Dog 1002, Day 56, read-out: Assayed Concentrations of Fluocinolone Acetonide in Dog Synovial Fluid Samples (Left Leg)): 541 ng/mL
- concentration at 3 day (synovial fluid (left knee joint), 18 mg, Left leg (18 mg implants), Dog 2001, Day 3, read-out: Assayed Concentrations of Fluocinolone Acetonide in Dog Synovial Fluid Samples (Left Leg)): 89 ng/mL
- concentration at 7 day (synovial fluid (left knee joint), 18 mg, Left leg (18 mg implants), Dog 2001, Day 7, read-out: Assayed Concentrations of Fluocinolone Acetonide in Dog Synovial Fluid Samples (Left Leg)): 194 ng/mL
- concentration at 29 day (synovial fluid (left knee joint), 18 mg, Left leg (18 mg implants), Dog 2001, Day 29, read-out: Assayed Concentrations of Fluocinolone Acetonide in Dog Synovial Fluid Samples (Left Leg)): 57.8 ng/mL
- concentration at 3 day (synovial fluid (left knee joint), 18 mg, Left leg (18 mg implants), Dog 2002, Day 3, read-out: Assayed Concentrations of Fluocinolone Acetonide in Dog Synovial Fluid Samples (Left Leg)): 193 ng/mL
- concentration at 7 day (synovial fluid (left knee joint), 18 mg, Left leg (18 mg implants), Dog 2002, Day 7, read-out: Assayed Concentrations of Fluocinolone Acetonide in Dog Synovial Fluid Samples (Left Leg)): 279 ng/mL
- concentration at 21 day (synovial fluid (left knee joint), 18 mg, Left leg (18 mg implants), Dog 2002, Day 21, read-out: Assayed Concentrations of Fluocinolone Acetonide in Dog Synovial Fluid Samples (Left Leg)): 393 ng/mL
- concentration at 29 day (synovial fluid (left knee joint), 18 mg, Left leg (18 mg implants), Dog 2002, Day 29, read-out: Assayed Concentrations of Fluocinolone Acetonide in Dog Synovial Fluid Samples (Left Leg)): 956 ng/mL
- concentration at 3 day (synovial fluid (left knee joint), 18 mg, Left leg (18 mg implants), Dog 3001, Day 3, read-out: Assayed Concentrations of Fluocinolone Acetonide in Dog Synovial Fluid Samples (Left Leg)): 788 ng/mL
- concentration at 7 day (synovial fluid (left knee joint), 18 mg, Left leg (18 mg implants), Dog 3001, Day 7, read-out: Assayed Concentrations of Fluocinolone Acetonide in Dog Synovial Fluid Samples (Left Leg)): 35300 ng/mL
- concentration at 21 day (synovial fluid (left knee joint), 18 mg, Left leg (18 mg implants), Dog 3001, Day 21, read-out: Assayed Concentrations of Fluocinolone Acetonide in Dog Synovial Fluid Samples (Left Leg)): 5180 ng/mL
- concentration at 56 day (synovial fluid (left knee joint), 18 mg, Left leg (18 mg implants), Dog 3001, Day 56, read-out: Assayed Concentrations of Fluocinolone Acetonide in Dog Synovial Fluid Samples (Left Leg)): 36.9 ng/mL
- concentration at 3 day (synovial fluid (left knee joint), 18 mg, Left leg (18 mg implants), Dog 3002, Day 3, read-out: Assayed Concentrations of Fluocinolone Acetonide in Dog Synovial Fluid Samples (Left Leg)): 207 ng/mL
- concentration at 7 day (synovial fluid (left knee joint), 18 mg, Left leg (18 mg implants), Dog 3002, Day 7, read-out: Assayed Concentrations of Fluocinolone Acetonide in Dog Synovial Fluid Samples (Left Leg)): 251 ng/mL
- concentration at 21 day (synovial fluid (left knee joint), 18 mg, Left leg (18 mg implants), Dog 3002, Day 21, read-out: Assayed Concentrations of Fluocinolone Acetonide in Dog Synovial Fluid Samples (Left Leg)): 276 ng/mL
- concentration at 29 day (synovial fluid (left knee joint), 18 mg, Left leg (18 mg implants), Dog 3002, Day 29, read-out: Assayed Concentrations of Fluocinolone Acetonide in Dog Synovial Fluid Samples (Left Leg)): 210 ng/mL
- concentration at 3 day (synovial fluid (right knee joint), 2 mg, Right leg (2 mg devices), Dog 1001, Day 3, read-out: Assayed Concentrations of Fluocinolone Acetonide in Dog Synovial Fluid Samples (Right Leg)): 52 ng/mL
- concentration at 7 day (synovial fluid (right knee joint), 2 mg, Right leg (2 mg devices), Dog 1001, Day 7, read-out: Assayed Concentrations of Fluocinolone Acetonide in Dog Synovial Fluid Samples (Right Leg)): 62.4 ng/mL
- concentration at 56 day (synovial fluid (right knee joint), 2 mg, Right leg (2 mg devices), Dog 1001, Day 56, read-out: Assayed Concentrations of Fluocinolone Acetonide in Dog Synovial Fluid Samples (Right Leg)): 19.3 ng/mL
- concentration at 3 day (synovial fluid (right knee joint), 2 mg, Right leg (2 mg devices), Dog 1002, Day 3, read-out: Assayed Concentrations of Fluocinolone Acetonide in Dog Synovial Fluid Samples (Right Leg)): 36.6 ng/mL
- concentration at 3 day (synovial fluid (right knee joint), 2 mg, Right leg (2 mg devices), Dog 2001, Day 3, read-out: Assayed Concentrations of Fluocinolone Acetonide in Dog Synovial Fluid Samples (Right Leg)): 600 ng/mL
- concentration at 3 day (synovial fluid (right knee joint), 2 mg, Right leg (2 mg devices), Dog 2002, Day 3, read-out: Assayed Concentrations of Fluocinolone Acetonide in Dog Synovial Fluid Samples (Right Leg)): 24.4 ng/mL
- concentration at 3 day (synovial fluid (right knee joint), 2 mg, Right leg (2 mg devices), Dog 3001, Day 3, read-out: Assayed Concentrations of Fluocinolone Acetonide in Dog Synovial Fluid Samples (Right Leg)): 57.9 ng/mL
- concentration at 29 day (synovial fluid (right knee joint), 2 mg, Right leg (2 mg devices), Dog 3001, Day 29, read-out: Assayed Concentrations of Fluocinolone Acetonide in Dog Synovial Fluid Samples (Right Leg)): 16.4 ng/mL
- concentration at 3 day (synovial fluid (right knee joint), 2 mg, Right leg (2 mg devices), Dog 3002, Day 3, read-out: Assayed Concentrations of Fluocinolone Acetonide in Dog Synovial Fluid Samples (Right Leg)): 40.7 ng/mL
- concentration at 29 day (synovial fluid (right knee joint), 2 mg, Right leg (2 mg devices), Dog 3002, Day 29, read-out: Assayed Concentrations of Fluocinolone Acetonide in Dog Synovial Fluid Samples (Right Leg)): 7.86 ng/mL
